Patent publication US9074014B2 (Ipsen Pharma S.A.S., priority 2008, dated 2015)
Where a SMILES comes first, the peptide text is derived from it. Where no end group is shown, it is not given here. [ ]: non-standard residue; d: D form. The star is where a group is joined. Ac6c = NC1(C(=O)O)CCCCC1; Nle = CCCC[C@H](N)C(=O)O; X1 = CCCN1C(=O)CC(*)C1=O; Ac5c = NC1(C(=O)O)CCCC1; Aib = CC(C)(N)C(=O)O

How the values were obtained:
[1] = Human plasma half-life assay; type: in vitro ADME; conditions: human plasma, 37° C., LC-MS; read-out: Human Plasma T½ (converted)
Method: (§1) B. Human and Rat Plasma Half-Life Assay
(§2) 50 μL was removed at various times, like at 0, 1, 2, 3, 4, 8, 24, 32, 48, 56, 72 hours, mixed with 5 μL formic acid and 150 μL acetonitrile in a microcentrifuge tube, vertexed, and centrifuged for 10 minutes at 10K rpm. The supernatant was transferred to an injection vial and analyzed by LC-MS. The LC-MS system consisted of an API4000 mass spectrometer with an ESI probe. Positive ion mode and full scan detection were used. HPLC separation was carried out on a Luna 3μ C8 (2), 2×30 mm column with a gradient from 90% A to 90% B in 10 minutes at a flow rate of 0.3 ml/min. Buffer A was 1% formic acid in water and buffer B was 1% formic acid acetonitrile.

[2] = Rat plasma half-life assay; type: in vitro ADME; conditions: rat plasma, 37° C., LC-MS; read-out: Rat Plasma T½ (converted)
Method: as §1, §2

Compound	half-life at 0.1 mg/ml [1]	half-life at 0.1 mg/ml [2]
CC[C@H](C)[C@H](NC(=O)[C@H](CCCCN)NC(=O)[C@H](CC(=O)O)NC(=O)C1(NC(=O)[C@H](C)NC(=O)[C@@H](NC(=O)C2(NC(=O)[C@H](Cc3ccc(O)cc3)NC(=O)[C@H](CC(=O)O)NC(=O)[C@H](CO)NC(=O)[C@@H](NC(=O)[C@H](Cc3ccccc3)NC(=O)[C@@H](NC(=O)CNC(=O)[C@H](CCC(=O)O)NC(=O)C(C)(C)NC(=O)[C@@H](N)Cc3ccc(O)cc3)[C@@H](C)O)[C@@H](C)CC)CCCC2)[C@@H](C)CC)CCCCC1)C(=O)N[C@@H](Cc1c[nH]cn1)C(=O)N[C@@H](CCC(N)=O)C(=O)N[C@@H](CCC(N)=O)C(=O)N[C@@H](CC(=O)O)C(=O)N[C@@H](Cc1ccccc1)C(=O)N[C@H](C(=O)N[C@@H](CC(N)=O)C(=O)N[C@@H](Cc1c[nH]c2ccccc12)C(=O)N[C@@H](CC(C)C)C(=O)N[C@@H](CC(C)C)C(=O)N[C@@H](C)C(=O)N[C@@H](CCC(N)=O)C(=O)N[C@@H](CCCCN)C(N)=O)C(C)C [Example 48, (Aib^2, A5c^11, A6c^14)hGIP(1-30)-NH2]	> 56 h	> 54 h
Y[Aib]EGTFISDY[Ac5c]IAMDKIHQQDFVNWLLAQKGKKNDWKHNITQ-OH [Example 53, (Aib^2, A5c^11)hGIP(1-42)-OH]	33.3 h	51.7 h
Y[Aib]EGTFISDY[Ac5c]IA[Nle]DKIHQQDFVNWLLAQKGKKNDWKHNITQ-OH [Example 54, (Aib^2, A5c^11, Nle^14)hGIP(1-42)-OH]	> 56 h	44.1 h
CC[C@H](C)[C@H](NC(=O)[C@H](CO)NC(=O)[C@H](Cc1ccc(O)cc1)NC(=O)C(C)(C)NC(=O)[C@H](CO)NC(=O)[C@@H](NC(=O)[C@H](Cc1ccccc1)NC(=O)[C@@H](NC(=O)CNC(=O)[C@H](CCC(=O)O)NC(=O)C(C)(C)NC(=O)[C@@H](N)Cc1ccc(O)cc1)[C@@H](C)O)[C@@H](C)CC)C(=O)N[C@@H](C)C(=O)N[C@@H](CCSC)C(=O)N[C@@H](CC(=O)O)C(=O)N[C@@H](CCCCN)C(=O)N[C@H](C(=O)N[C@@H](Cc1c[nH]cn1)C(=O)N[C@@H](CCC(N)=O)C(=O)N[C@@H](CCC(N)=O)C(=O)N[C@@H](CC(=O)O)C(=O)N[C@@H](Cc1ccccc1)C(=O)N[C@H](C(=O)N[C@@H](CC(N)=O)C(=O)N[C@@H](Cc1c[nH]c2ccccc12)C(=O)N[C@@H](CC(C)C)C(=O)N[C@@H](CC(C)C)C(=O)N[C@@H](C)C(=O)N[C@@H](CCC(N)=O)C(=O)N[C@@H](CCCCN)C(N)=O)C(C)C)[C@@H](C)CC [Example 18, (Aib^2, 9)hGIP(1-30)-NH2] (H-Y[Aib]EGTFIS[Aib]YSIAMDKIHQQDFVNWLLAQK-NH2; N-terminus assumed)	11.3 h	44.4 h
CC[C@H](C)[C@H](NC(=O)[C@H](CCCCN)NC(=O)[C@H](CC(=O)O)NC(=O)[C@H](CCSC)NC(=O)[C@H](C)NC(=O)C1(NC(=O)[C@H](CO)NC(=O)[C@H](Cc2ccc(O)cc2)NC(=O)[C@H](CC(=O)O)NC(=O)[C@H](CO)NC(=O)[C@@H](NC(=O)[C@H](Cc2ccccc2)NC(=O)[C@@H](NC(=O)CNC(=O)[C@H](CCC(=O)O)NC(=O)C(C)(C)NC(=O)[C@@H](N)Cc2ccc(O)cc2)[C@@H](C)O)[C@@H](C)CC)CCCC1)C(=O)N[C@@H](Cc1c[nH]cn1)C(=O)N[C@@H](CCC(N)=O)C(=O)N[C@@H](CCC(N)=O)C(=O)N[C@@H](CC(=O)O)C(=O)N[C@@H](Cc1ccccc1)C(=O)N[C@H](C(=O)N[C@@H](CC(N)=O)C(=O)N[C@@H](Cc1c[nH]c2ccccc12)C(=O)N[C@@H](CC(C)C)C(=O)N[C@@H](CC(C)C)C(=O)N[C@@H](C)C(=O)N[C@@H](CCC(N)=O)C(=O)N[C@@H](CCCCN)C(N)=O)C(C)C [Example 13, (Aib^2, A5c^12)hGIP(1-30)-NH2] (H-Y[Aib]EGTFISDYS[Ac5c]AMDKIHQQDFVNWLLAQK-NH2; N-terminus assumed)	35.4 h	> 48 h
YAPGTFISDY[Ac5c]IA[Ac6c]DKIHQQDFVNWLLAQKGKKNDWKHNITQ-OH [Example 102, (Pro^3, A5c^11, A6c^14)hGIP(1-42)-OH]	54.1 h	1.7 h
Y[Aib]EGTF[Ac6c]SDYSIAMDKIHQQDFVNWLLAQKC(X1)KKNDWKHNITQ-OH [Example 90, [Aib^2, A6c^7, Cys(Psu)^31]hGIP(1-42)-OH]	11.3 h	4.8 h
CC[C@H](C)[C@H](NC(=O)[C@H](CO)NC(=O)[C@H](Cc1ccc(O)cc1)NC(=O)[C@H](CC(=O)O)NC(=O)[C@H](CO)NC(=O)C1(NC(=O)[C@H](Cc2ccccc2)NC(=O)[C@@H](NC(=O)CNC(=O)[C@@H]2CCCN2C(=O)C(C)(C)NC(=O)[C@@H](N)Cc2ccc(O)cc2)[C@@H](C)O)CCCCC1)C(=O)N[C@@H](C)C(=O)N[C@@H](CCSC)C(=O)N[C@@H](CC(=O)O)C(=O)N[C@@H](CCCCN)C(=O)N[C@H](C(=O)N[C@@H](Cc1c[nH]cn1)C(=O)N[C@@H](CCC(N)=O)C(=O)N[C@@H](CCC(N)=O)C(=O)N[C@@H](CC(=O)O)C(=O)N[C@@H](Cc1ccccc1)C(=O)N[C@H](C(=O)N[C@@H](CC(N)=O)C(=O)N[C@@H](Cc1c[nH]c2ccccc12)C(=O)N[C@@H](CC(C)C)C(=O)N[C@@H](CC(C)C)C(=O)N[C@@H](C)C(=O)N[C@@H](CCC(N)=O)C(=O)N[C@@H](CCCCN)C(N)=O)C(C)C)[C@@H](C)CC [Example 109, (Aib^2, Pro^3, A6c^7)hGIP(1-30)-NH2]	27.2 h	47.8 h
Y[Aib]EGTFISDYS[Ac5c]AMDKIHQQDFVNWLLAQKGKKNDWKHNITQ-OH [Example 7, (Aib^2, A5c^12)hGIP(1-42)-OH]	37.1 h	5.3 h
CC[C@H](C)[C@H](NC(=O)[C@H](CCCCN)NC(=O)[C@H](CC(=O)O)NC(=O)[C@H](CCSC)NC(=O)C(C)(C)NC(=O)[C@@H](NC(=O)[C@H](CO)NC(=O)[C@H](Cc1ccc(O)cc1)NC(=O)[C@H](CC(=O)O)NC(=O)[C@H](CO)NC(=O)[C@@H](NC(=O)[C@H](Cc1ccccc1)NC(=O)[C@@H](NC(=O)CNC(=O)[C@H](CCC(=O)O)NC(=O)C(C)(C)NC(=O)[C@@H](N)Cc1ccc(O)cc1)[C@@H](C)O)[C@@H](C)CC)[C@@H](C)CC)C(=O)N[C@@H](Cc1c[nH]cn1)C(=O)N[C@@H](CCC(N)=O)C(=O)N[C@@H](CCC(N)=O)C(=O)N[C@@H](CC(=O)O)C(=O)N[C@@H](Cc1ccccc1)C(=O)N[C@H](C(=O)N[C@@H](CC(N)=O)C(=O)N[C@@H](Cc1c[nH]c2ccccc12)C(=O)N[C@@H](CC(C)C)C(=O)N[C@@H](CC(C)C)C(=O)N[C@@H](C)C(=O)N[C@@H](CCC(N)=O)C(=O)N[C@@H](CCCCN)C(N)=O)C(C)C [Example 47, (Aib^2, 13)hGIP(1-30)-NH2] (H-Y[Aib]EGTFISDYSI[Aib]MDKIHQQDFVNWLLAQK-NH2; N-terminus assumed)	45.3 h	30.8 h
Y[Aib]EGTF[Ac6c]SDYSIA[Nle]DK[Ac6c]HQQDFVNWLLAQKGKKNDWKHNITQ-OH [Example 37, (Aib^2, A6c^7, 17, Nle^14)hGIP(1-42)-OH]	> 48 h	14 h
Y[dA]EGTFISDY[Ac5c]IAMDKIHQQDFVNWLLAQKGKKNDWKHN[Ac5c]TQ-OH [Example 104, (D-Ala^2, A5c^11,40)hGIP(1-42)-OH]	20.2 h	14.8 h
Y[Aib]EGTF[Ac6c]SDYSIAMDKIHQQDFVNWLLAQKGKKNDWKHC(X1)ITQ-OH [Example 79, [Aib^2, A6c^7, Cys(Psu)^39]hGIP(1-42)-OH]		14.3 h
